Calls of active or inactive are those of the source. No cut-off for these calls is given here.
What was measured:
[1] = tested on: Histone acetyltransferase p300 (Homo sapiens), Q09472 [C1438A]; assay: Inhibition of His-tagged EP300 C1438A mutant catalytic domain catalyzed butyrylation (unknown origin) expressed in Escherichia coli BL21 (DE3) using Histone H3 as substrate at 25 uM preincubated with compound for 10 mins followed by butyryl-CoA addition and measured after 10 mins by Western blot analysis; conditions: time 20.0 min
Histone acetyltransferase p300 (Homo sapiens), Q09472 [C1438A], sequence (Q09472 whole entry C1438A, the tested form may be a part): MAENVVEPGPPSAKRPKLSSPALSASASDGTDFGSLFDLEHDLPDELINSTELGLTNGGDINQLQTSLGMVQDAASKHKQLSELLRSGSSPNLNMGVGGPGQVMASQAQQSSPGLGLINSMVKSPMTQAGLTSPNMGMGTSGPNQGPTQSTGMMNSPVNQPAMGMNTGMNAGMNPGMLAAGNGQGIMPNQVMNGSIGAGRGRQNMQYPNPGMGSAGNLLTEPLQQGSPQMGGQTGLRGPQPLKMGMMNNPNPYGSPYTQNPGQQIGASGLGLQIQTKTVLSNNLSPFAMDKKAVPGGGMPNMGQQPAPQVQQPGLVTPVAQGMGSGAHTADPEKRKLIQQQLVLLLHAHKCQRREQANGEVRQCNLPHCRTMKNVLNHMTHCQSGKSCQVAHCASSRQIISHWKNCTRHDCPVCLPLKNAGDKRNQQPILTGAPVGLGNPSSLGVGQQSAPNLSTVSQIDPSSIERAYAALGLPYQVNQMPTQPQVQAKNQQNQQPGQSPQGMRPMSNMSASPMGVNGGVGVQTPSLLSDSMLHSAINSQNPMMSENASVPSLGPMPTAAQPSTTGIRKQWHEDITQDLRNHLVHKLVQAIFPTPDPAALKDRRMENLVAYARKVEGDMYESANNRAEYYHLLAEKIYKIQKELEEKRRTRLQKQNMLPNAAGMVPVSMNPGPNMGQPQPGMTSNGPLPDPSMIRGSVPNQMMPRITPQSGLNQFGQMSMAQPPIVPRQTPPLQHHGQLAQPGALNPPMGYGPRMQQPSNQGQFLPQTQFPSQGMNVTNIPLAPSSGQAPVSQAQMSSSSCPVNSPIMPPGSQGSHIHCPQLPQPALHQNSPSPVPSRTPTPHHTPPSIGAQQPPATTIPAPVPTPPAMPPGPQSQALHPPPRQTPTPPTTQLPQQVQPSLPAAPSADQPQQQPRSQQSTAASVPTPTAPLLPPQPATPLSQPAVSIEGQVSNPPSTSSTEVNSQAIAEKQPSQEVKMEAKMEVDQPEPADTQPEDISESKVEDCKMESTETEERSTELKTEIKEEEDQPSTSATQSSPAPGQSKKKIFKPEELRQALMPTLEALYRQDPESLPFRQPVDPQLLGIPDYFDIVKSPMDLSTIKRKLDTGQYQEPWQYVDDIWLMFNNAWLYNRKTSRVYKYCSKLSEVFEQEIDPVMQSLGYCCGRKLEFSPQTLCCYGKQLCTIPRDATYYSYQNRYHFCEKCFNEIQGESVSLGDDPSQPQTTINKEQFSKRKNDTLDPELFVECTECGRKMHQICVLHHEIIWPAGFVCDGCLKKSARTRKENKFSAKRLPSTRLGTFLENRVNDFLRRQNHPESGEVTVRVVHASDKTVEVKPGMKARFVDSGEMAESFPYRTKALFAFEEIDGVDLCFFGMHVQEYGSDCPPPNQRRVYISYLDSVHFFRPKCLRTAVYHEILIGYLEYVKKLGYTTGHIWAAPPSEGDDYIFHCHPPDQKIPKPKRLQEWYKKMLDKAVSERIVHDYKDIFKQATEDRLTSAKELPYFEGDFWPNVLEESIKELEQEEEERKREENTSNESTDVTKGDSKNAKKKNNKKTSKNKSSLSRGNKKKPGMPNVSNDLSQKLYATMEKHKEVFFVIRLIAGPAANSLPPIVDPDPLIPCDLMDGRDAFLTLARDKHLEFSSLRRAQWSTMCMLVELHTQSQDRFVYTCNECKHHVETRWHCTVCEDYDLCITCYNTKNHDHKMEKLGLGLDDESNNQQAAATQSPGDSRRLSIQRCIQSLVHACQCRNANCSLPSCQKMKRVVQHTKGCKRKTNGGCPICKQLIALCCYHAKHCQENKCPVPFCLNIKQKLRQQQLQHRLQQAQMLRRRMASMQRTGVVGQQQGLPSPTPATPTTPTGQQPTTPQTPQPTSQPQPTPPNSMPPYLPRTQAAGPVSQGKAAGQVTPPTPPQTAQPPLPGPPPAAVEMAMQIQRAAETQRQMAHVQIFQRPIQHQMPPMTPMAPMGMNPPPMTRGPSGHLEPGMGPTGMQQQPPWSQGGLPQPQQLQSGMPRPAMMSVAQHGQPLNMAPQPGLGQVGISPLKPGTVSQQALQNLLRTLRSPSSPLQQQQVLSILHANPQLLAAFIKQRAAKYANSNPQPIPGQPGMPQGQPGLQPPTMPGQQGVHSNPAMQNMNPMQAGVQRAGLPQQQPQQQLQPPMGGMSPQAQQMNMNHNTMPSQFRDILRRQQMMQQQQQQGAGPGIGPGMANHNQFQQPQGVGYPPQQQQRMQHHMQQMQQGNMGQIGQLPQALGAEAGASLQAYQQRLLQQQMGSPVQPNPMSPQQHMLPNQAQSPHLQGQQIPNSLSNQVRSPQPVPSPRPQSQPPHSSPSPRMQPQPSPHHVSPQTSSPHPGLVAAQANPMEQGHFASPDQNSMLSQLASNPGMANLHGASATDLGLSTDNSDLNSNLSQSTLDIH

3T3-L1 [2] = assay: Cytotoxicity against in mouse 3T3-L1 cells assessed as effect on cellular oxidoreductase activity at 25 uM incubated for 6 days by MTT assay; type: toxicity, cell-based; conditions: 3t3-l1, 144 h, time 6 day
3T3-L1 [3] = assay: Anti-adipogenic activity against mouse 3T3-L1 cells at 25 uM incubated for 8 days by Oil Red O staining based spectrophotometric analysis; type: functional, cell-based; conditions: time 8.0 day
3T3-L1 [4] = assay: Anti-adipogenic activity against mouse 3T3-L1 cells assessed as downregulation of PPARG mRNA expression at 25 uM measured after 7 days by qRT-PCR analysis; type: functional, cell-based; conditions: time 7.0 day
3T3-L1 [5] = assay: Anti-adipogenic activity against mouse 3T3-L1 cells assessed as downregulation of ACSS2 mRNA expression at 25 uM measured after 7 days by qRT-PCR analysis; type: functional, cell-based; conditions: time 7.0 day
3T3-L1 [6] = assay: Anti-adipogenic activity against mouse 3T3-L1 cells assessed as upregulation of KDM4C mRNA expression at 25 uM measured after 7 days by qRT-PCR analysis; type: functional, cell-based; conditions: time 7.0 day
3T3-L1 [7] = assay: Inhibition of H3K5 butyrylation in mouse 3T3-L1 cells by Immunoblotting analysis; type: functional, cell-based
Mus musculus [8] = assay: Anti-obesity activity in C57BL6/J mouse model of high fat diet-induced obesity assessed as daily food consumption measured per day per mouse at 50 mg/kg (reference value: 1.95547 +/- 0.23142 g); type: functional
Mus musculus [9] = assay: Anti-obesity activity in C57BL6/J mouse model of high fat diet-induced obesity assessed as reduction in adipocyte hypertrophy at 50 mg/kg by hematoxylin and eosin staining based assay; type: functional, organism-based
Mus musculus [10] = assay: Anti-obesity activity in C57BL6/J mouse model of high fat diet-induced obesity assessed as reduction in H4K5 butyrylation level in epididymal fat pad at 50 mg/kg by Immunoblotting analysis; type: functional, organism-based
Mus musculus [11] = assay: Anti-obesity activity in db/db mouse assessed as daily food consumption […] at 50 mg/kg, po qd administered for 30 days and measured every week (reference value: 37.8 +/- 1.64 g); type: functional; conditions: time 30 day
Mus musculus [12] = assay: Anti-obesity activity in db/db mouse assessed as reduction in adipocyte hypertrophy at 50 mg/kg, po qd administered for 30 days by hematoxylin and eosin staining based assay; type: functional, organism-based; conditions: time 30.0 day
Mus musculus [13] = assay: Anti-obesity activity in db/db mouse assessed as reduction in H4K5 butyrylation level in epididymal fat pad at 50 mg/kg, po qd administered for 30 days by Immunoblotting analysis; type: functional, organism-based; conditions: time 30.0 day
Mus musculus [14] = assay: Anti-obesity activity in db/db mouse assessed as inhibition of Adipoq-gene expression at 50 mg/kg, po qd administered for 30 days by qRT-PCR analysis; type: functional, organism-based; conditions: time 30.0 day
[15] = Mutagenicity in Salmonella typhimurium TA98 assessed as number of revertants measured per plate at 10 to 1000 incubated for 48 hrs in presence of rat liver S9 fraction by plate incorporation assay; type: toxicity; conditions: salmonella enterica subsp. enterica serovar typhimurium, s9, 48 h, dose 10-1000 µg
[16] = Mutagenicity in Salmonella typhimurium TA97a assessed as number of revertants measured per plate at 10 to 1000 incubated for 48 hrs in absence of rat liver S9 fraction by plate incorporation assay; type: toxicity; conditions: salmonella enterica subsp. enterica serovar typhimurium, s9, 48 h, dose 10-1000 µg
[17] = Toxicity in male Sprague-Dawley rat assessed as effect on body weight at 500 mg/kg, po administered as single dose measured on day 1 (reference value: 174.75 +/- 7.61 g); type: organism-based; conditions: in vivo, 24 h, time 1 day
[18] = Toxicity in male Sprague-Dawley rat assessed as effect on body weight at 1000 mg/kg, po administered as single dose measured on day 1 (reference value: 174.75 +/- 7.61 g); type: organism-based; conditions: in vivo, 24 h, time 1 day
[19] = Toxicity in male Sprague-Dawley rat assessed as effect on body weight at 250 mg/kg, po administered as single dose measured on day 7 (reference value: 217.38 +/- 11.38 g); type: organism-based; conditions: in vivo, 168 h, time 7 day
[20] = Toxicity in male Sprague-Dawley rat assessed as effect on body weight at 1000 mg/kg, po administered as single dose measured on day 7 (reference value: 217.38 +/- 11.38 g); type: organism-based; conditions: in vivo, 168 h, time 7 day
[21] = Toxicity in female Sprague-Dawley rat assessed as effect on body weight at 250 mg/kg, po administered as single dose measured on day 1 (Rvb =152.21 +/- 6.58 g); type: organism-based; conditions: in vivo, 24 h, time 1 day
[22] = Toxicity in female Sprague-Dawley rat assessed as effect on body weight at 500 mg/kg, po administered as single dose measured on day 14 (Rvb =171.5 +/- 6.65 g); type: organism-based; conditions: in vivo, 336 h, time 14 day
[23] = Toxicity in male Sprague-Dawley rat assessed as average food intake at 500 mg/kg, po administered as single dose measured on day 1 (Rvb =20.38 g/day); type: organism-based; conditions: in vivo, 24 h, time 1 day
[24] = Toxicity in male Sprague-Dawley rat assessed as average food intake at 500 mg/kg, po administered as single dose measured on day 14 (Rvb =21.24 g/day); type: organism-based; conditions: in vivo, 336 h, time 14 day
[25] = Toxicity in female Sprague-Dawley rat assessed as average food intake at 250 mg/kg, po administered as single dose measured on day 1 (Rvb =17.84 g/day); type: organism-based; conditions: in vivo, 24 h, time 1 day
[26] = Toxicity in female Sprague-Dawley rat assessed as average food intake at 1000 mg/kg, po administered as single dose measured on day 1 (Rvb =17.84 g/day); type: organism-based; conditions: in vivo, 24 h, time 1 day
[27] = Toxicity in male Sprague-Dawley rat assessed as average water intake measured per day at 1000 mg/kg, po administered as single dose measured on day 1 (Rvb =32 ml/day); type: organism-based; conditions: in vivo, 24 h, time 1 day
[28] = Toxicity in male Sprague-Dawley rat assessed as average water intake measured per day at 250 mg/kg, po administered as single dose measured on day 14 (Rvb =34 ml/day); type: organism-based; conditions: in vivo, 336 h, time 14 day
[29] = Toxicity in male Sprague-Dawley rat assessed as average water intake measured per day at 500 mg/kg, po administered as single dose measured on day 14 (Rvb =34 ml/day); type: organism-based; conditions: in vivo, 336 h, time 14 day
[30] = Toxicity in male Sprague-Dawley rat assessed as average water intake measured per day at 1000 mg/kg, po administered as single dose measured on day 14 (Rvb =34 ml/day); type: organism-based; conditions: in vivo, 336 h, time 14 day
[31] = Toxicity in female Sprague-Dawley rat assessed as average water intake measured per day at 500 mg/kg, po administered as single dose measured on day 1 (Rvb =25 ml/day); type: organism-based; conditions: in vivo, 24 h, time 1 day
[32] = Toxicity in female Sprague-Dawley rat assessed as average water intake measured per day at 250 mg/kg, po administered as single dose measured on day 14 (Rvb =26 ml/day); type: organism-based; conditions: in vivo, 336 h, time 14 day
[33] = Toxicity in female Sprague-Dawley rat assessed as average water intake measured per day at 500 mg/kg, po administered as single dose measured on day 14 (Rvb =26 ml/day); type: organism-based; conditions: in vivo, 336 h, time 14 day

With COc1ccc(C(=O)C2=C3OC(C)(C)[C@@H](CC=C(C)C)C[C@@]34C[C@@H](CC=C(C)C)C(C)(C)[C@](CC=C(C)C)(C2=O)C4=O)cc1OC the inhibition [1] was “Active”, the Activity (3T3-L1 [2]) was “Non-Toxic” and the Activity (3T3-L1 [3]) was “Active”. The Activity (3T3-L1 [4]) was “Active”, the Activity (3T3-L1 [5]) was “Active” and the Activity (3T3-L1 [6]) was “Active”. The inhibition (3T3-L1 [7]) was “Active”, the Activity (Mus musculus [8]) was 2.041 g and the Activity (Mus musculus [9]) was “Active”. The Activity (Mus musculus [10]) was “Active”, the Activity (Mus musculus [11]) was 34 g and the Activity (Mus musculus [12]) was “Active”. For the same molecule, the Activity (Mus musculus [13]) was “Active”, the Activity (Mus musculus [14]) was “Active” and the Activity [15] was “Non-Toxic”. The Activity [16] was “Non-Toxic”, the Activity [17] was 176.3 g and the Activity [18] was 176.24 g. The Activity [19] was 216.62 g, the Activity [20] was 217.65 g and the Activity [21] was 151.99 g. The Activity [22] was 175.8 g, the Activity [23] was 20.99 g/day and the Activity [24] was 23.29 g/day. For the same molecule, the Activity [25] was 20 g/day, the Activity [26] was 18.17 g/day and the Activity [27] was 34 mL. The Activity [28] was 34 mL, the Activity [29] was 40 mL and the Activity [30] was 38 mL. For the same molecule, the Activity [31] was 25 mL, the Activity [32] was 24 mL and the Activity [33] was 26 mL.

From ChEMBL document CHEMBL5113530, “Butyrylation Meets Adipogenesis-Probed by a p300-Catalyzed Acylation-Specific Small Molecule Inhibitor: Implication in Anti-obesity Therapy” (J Med Chem, 2022)
